Laboratory results: patent US4731377A, “Antitumor cyclic peroxides” (Harbor Branch Oceanographic Institute, Inc., priority 1986, dated 1988)
Converted amounts (≈) assume the structure as drawn.

Tested on: P-388 mouse leukemia cells
Experiment: P388 mouse leukemia cell cytotoxicity assay (24-well plate screening / tube assay)
Assay type: cell-based
Settings: for concentration inhibiting cell growth relative to the concentration required for inhibition by chondrillin (composition 1): 50% inhibition stated for II/2 and III/3, P388 mouse leukemia cells; for IC50: P388, P-388 mouse leukemia cells, 48 hours incubation, 5% CO2, read-out: P388 IC50, Inhibiting concentration 50% of cell growth; for antitumor activity ranking among the compositions tested: Table 2, P388, result in words; for cytotoxic in vitro against P-388 murine leukemia cells: result in words
From the text: The following assay method was utilized to illustrate the antitumor effectiveness of the compositions of Formulae II - VI corresponding to compositions 2-5 of the examples. Data is also provided for the chondrillin composition (1) which has also been isolated according to the process of the invention.
388 MOUSE LEUKEMIA CELL CYTOXICITY ASSAY 24-WELL PLATE SCREENING ASSAY AND TUBE ASSAY PROTOCOL
Media--Dulbeccos with glucose and pyruvate (Biologos, Inc) with 10% horse serum, (Biologos, Inc) and 1.0 ug/ml gentamicin (Gibco).
Cells - P-388 mouse leukemia cells (American Type Culture Collection) in media at a concentration of 5×10^4 W cells/ml Sterile 24-well culture plates (Nunc) for screening or 12×75 mm glass culture tubes (Becton-Dickinson) for tube assay. Microdispenser with 1 to 5 ul increments (Drummond Scientific Co. Broomall PA).
Finnpipette with 5 to 50 μl increments and Finnpipette with 50 to 200 μl increments.
1. A sample of the composition to be assayed is added to each well or tube in an amount of from 200 ug/ml and 100 ug/ml for screening. For DDC of known active compounds use log concentrations from 100 ug/ml to 0.01 ug/ml for range-finding assay; when range has been determined, use five concentrations between highest and lowest active concentrations.
2. Add 2.0 ml of 5×10^4 cell suspension in media to each well or tube. Tubes are loosely covered with parafilm.
3 Incubate in 5% CO2 incubator 48 hours.
4. Visually read plates with inverted microscope, comparing with solvent control. Assign activity as follows:
Repeat all positive samples using tube assay.
5. For Tube assays--Mix tube well on vortex and remove 0.5 ml aliquot and add to 9.5 ml of diluent fluid (Isoton - Coulter) in Accuvette (Coulter) and mix well by inversion immediately before counting, taking care not to produce excessive bubbles. Count on Coulter Counter (Counter is set to count 0.5 ml of the solution; therefore counts may be converted to cell/ml in original assay tube by multiplying count by 40.
Positive control--Vinblastine or Vincristine in aqueous solution.
Always run a solvent control in duplicate in the last two wells of each plate or four tubes for each rack of 72 or less tubes. Also run four wells or tubes with media and cells only per run of plates or tubes. When using volumes of aqueous solutions greater than 200 μl, dry sample and bring up to desired concentration in media.
Compositions 1-5 of formulae I/1; II/2; III/3; IV/4; and V/5 are cytotoxic in vitro against P-388 murine leukemia cells.

Compound	concentration inhibiting cell growth relative to the concentration required for inhibition by chondrillin (composition 1) [%]	IC50 [µg/mL]	antitumor activity ranking among the compositions tested	cytotoxic in vitro against P-388 murine leukemia cells
CC=CC=CCCCCCCC[C@]1(OC)C=C[C@@H](CC(=O)OC)OO1 (relative stereo) [Composition II/2]	1	0.05 (≈ 0.142 µM)	greatest antitumor activity of the compositions tested	cytotoxic
CCCCCCCCCCCC[C@]1(OC)C=C[C@@H](CC(=O)OC)OO1 (relative stereo) [Composition III/3]	1	0.05 (≈ 0.14 µM)	greatest antitumor activity of the compositions tested	cytotoxic
CC=CC=CCCCCCCCCC[C@]1(OC)C=C[C@@H](CC(=O)OC)OO1 (relative stereo) [Composition IV/4]	2	0.1 (≈ 0.263 µM)		cytotoxic
CC=CCCCCCCCCC[C@]1(OC)C=C[C@@H](CC(=O)OC)OO1 (relative stereo) [Composition V/5]	2	0.1 (≈ 0.282 µM)		cytotoxic
CCCCCCCCCCCCCCCCC1(OC)C=CC(CC(=O)OC)OO1 (stereo not shown) [Composition I/1, chondrillin, reference compound]		5 (≈ 12.1 µM)		cytotoxic
